US10512696B2, “Nanoscale platinum compounds and methods of use thereof” (priority 2009, dated 2019)

Key:
Lewis lung carcinoma = tested on: Lewis lung carcinoma
Method: (§1) The LLC Lung Cancer cells and 4T1 Breast Cancer cells ([…]) were implanted subcutaneously in the flanks of 4-week-old C57/BL6 and BALB/c mice (weighing 20 g, Charles River Laboratories, MA) respectively. The drug therapy was started after the tumors attained volume of 50 mm^3. […] PBS (100 μL) administered by tail-vein injection was used as a control for drug treatment. The tumor volumes and body weights were monitored on a daily basis. The animals were sacrificed when the average tumor size of the control exceeded 2000 mm^3 in the control group. The tumors were harvested immediately following sacrifice and stored in 10% formalin for further analysis. All animal procedures were approved by Harvard institutional IUCAC.
(§2) The tissues were fixed in 10% formalin, paraffin embedded, sectioned and stained with H&E at the Harvard Medical School Core Facility. Tumor and Kidney paraffin sections were deparaffinized and stained with standard TMR-red fluorescent terminal deoxynucleotidyl transferase-mediated dUTP nick end labeling (TUNEL) kit following the manufacturer's protocol (In Situ Cell Death Detection Kit, TMR Red, Roche). Images were obtained using a Nikon Eclipse TE2000 fluorescence microscope equipped with red filter.
(§3) Body weights were recorded daily to assess toxicity. In addition, livers and spleens were removed at the end of treatment to record weights and perform extensive pathological examination to assess toxicity of vital organs. Cell apoptosis in vital organs was measured using TUNNEL assay. Statistical analysis of the toxicity data was performed using a two-way ANOVA test with the Prism 5™ software.

4T1 breast cancer = conditions: mouse, in vivo
Method: as §1, §2, §3

[1] = tested on: cisplatin-resistant cancer cell line (CP20); experiment: Liponanoparticle cell viability MTS assay, CP20; format: cell-based
Method: (§4) In a 96 well plate, 2×10^3 cells were plated. After 4 h, cells were treated with different concentrations of free drug or lipo-nanoparticles. Cells without any treatment were kept as control. After 48 h, cell viability was assessed using standard MTS assay according to manufacturer's instructions.

[2] = tested on: Lewis Lung Carcinoma cell lines (LLC); experiment: MTS cell viability assay, LLC cells; format: cell-based, murine; conditions: for EC50: cisplatin-equivalent concentration; for IC50: 48 hours post-incubation, read-out: IC50 (LLC cell kill)
Excerpt: The absorbance reflects the number of surviving cells.

[3] = tested on: K-ras LSL/+ /Pten fl/fl ovarian adenocarcinomas; experiment: In vivo murine ovarian cancer tumor model (bioluminescence); parameters: species or system mice
Method: Ovarian adenocarcinomas were induced in genetically-engineered K-ras^LSL/+/Pten^fl/fl mice via intrabursal delivery of adenovirus carrying Cre recombinase, as described previously. Tumor cells were engineered to express luciferase once activated by Adeno-Cre, in order to make tumor imaging feasible before and after drug treatment.
Statistical analysis of the toxicity data was analyzed using a one-way ANOVA test with the Prism 5™ software.

4T1 breast cancer cells = experiment: Liponanoparticle cell viability MTS assay, 4T1; format: cell-based; conditions: three time points
Method: In a 96 well plate, 2×10^3 cells were plated. After 4 h, cells were treated with different concentrations of free drug or lipo-nanoparticles. Cells without any treatment were kept as control. […]

[4] = tested on: Lewis lung cancer cell line (LLC); experiment: Liponanoparticle cell viability MTS assay, LLC; format: cell-based
Method: as §4

| SMILES | tumor growth inhibition (Lewis lung carcinoma; dose equivalent to 1.25 mg/kg of cisplatin, three doses i.v.) | apoptosis in kidney (TUNEL) (Lewis lung carcinoma; mouse, in vivo) | apoptosis in tumor (TUNEL) (Lewis lung carcinoma; mouse, in vivo) | kidney H&E pathology (Lewis lung carcinoma; mouse, in vivo) | tumor inhibition, dose dependence (Lewis lung carcinoma; three doses i.v., 1.25 and 3 mg/kg) | apoptosis in the kidney (4T1 breast cancer) | effect on viability of CP20 cells [1] | effect on LLC cell viability ([2]; 48 h) | concentration for complete cell kill ([2]; LLC cells) | EC50 ([2]; LLC cells, 48 h) [µM] | IC50 ([2]; LLC cells) [µM] | apoptosis in the kidney (TUNEL) ([3]; 3 mg/kg or equivalent Pt concentration) | body weight ([3]; daily recording) | effect on viability of 4T1 breast cancer cells (4T1 breast cancer cells) | effect on viability of LLC cells [4] |
| --- | --- | --- | --- | --- | --- | --- | --- | --- | --- | --- | --- | --- | --- | --- | --- |
| N.N.[Cl][Pt][Cl] [Cisplatin, cis-dichlorodiammineplatinum(II)] | only a minor tumor growth inhibition | significant apoptosis | significant induction of apoptosis | significant tubular necrosis | dose-dependent tumor inhibition | significant apoptosis in the kidney | only at the highest concentration | identical cell kill | greater than 20 uM | 3.87 ± 0.37 | 3.87 ± 0.37 | significant apoptosis in the kidney | significant loss of body weight |  |  |
| N.N.O=C([O-])C1(C(=O)[O-])CCC1.[Pt+2] [Carboplatin, cis-Diammine-(1,1-cyclobutanedicarboxylato) platinum(II)] |  |  |  |  |  |  | no effect at this concentration range |  |  | 14.8 ± 0.38 | 14.8 ± 0.38 |  |  | least effective of all platinates tested | no effect at this concentration range |
